For the assay, the target named is FXR (Homo sapiens (Human), UniProt Q96RI1). In words: FXR EC50 (FXR agonist activity reported with each example). It counts as cell-based.
Chain of FXR (Q96RI1 262-486): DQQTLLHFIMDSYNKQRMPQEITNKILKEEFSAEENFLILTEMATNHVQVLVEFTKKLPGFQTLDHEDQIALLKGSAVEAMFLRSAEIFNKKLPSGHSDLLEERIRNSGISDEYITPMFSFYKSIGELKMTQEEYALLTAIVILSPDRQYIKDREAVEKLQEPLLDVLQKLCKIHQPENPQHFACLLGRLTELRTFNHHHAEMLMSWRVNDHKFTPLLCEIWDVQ

One may read the EC50 as the concentration giving half of the maximal effect. A high value points to a less potent agent. In turn, `O=C(O)c1c(F)ccc2nc(C34CCC(OCc5c(-c6c(Cl)cncc6Cl)noc5C5CC5)(CC3)CC4)sc12` [Example 512, 2-(4-((5-cyclopropyl-3-(3,5-dichloropyridin-4-yl)isoxazol-4-yl)methoxy)bicyclo[2.2.2]octan-1-yl)-6-fluorobenzo[d]thiazole-7-carboxylic acid] came in with an EC50 of 43 nM. As to `O=C(O)Cc1ccccc1OCC12CCC(OCc3c(-c4c(Cl)cccc4Cl)noc3C3CC3)(CC1)CC2` [Example 116, 2-(2-((4-((5-cyclopropyl-3-(2,6-dichlorophenyl)isoxazol-4-yl)methoxy)bicyclo[2.2.2]octan-1-yl)methoxy)phenyl)acetic acid], the EC50 is 900 nM. The figure for `O=C(O)c1cccc(-c2noc(C34CCC(OCc5c(-c6c(Cl)cncc6Cl)noc5C5CC5)(CC3)CC4)n2)n1` [Example 247, 6-(5-(4-((5-cyclopropyl-3-(3,5-dichloropyridin-4-yl)isoxazol-4-yl)methoxy)bicyclo[2.2.2]octan-1-yl)-1,2,4-oxadiazol-3-yl)picolinic acid] is 580 nM; for `O=C(O)c1ccc(OCC23CCC(OCc4c(-c5c(Cl)cncc5Cl)noc4C4CC4)(CC2)CC3)c2ncccc12` [Example 302] it is 54 nM; for `O=C(O)c1ccc2nc(C34CCC(OCc5c(-c6c(Cl)cccc6Cl)noc5C5CC5)(CC3)CC4)ccc2c1` [Example 134, 2-(4-((5-cyclopropyl-3-(2,6-dichlorophenyl)isoxazol-4-yl)methoxy)bicyclo[2.2.2]octan-1-yl)quinoline-6-carboxylic acid] it is 83 nM.

`O=C(O)c1ccc2nc(C34CCC(/C=C/c5c(-c6c(Cl)cncc6Cl)noc5C5CC5)(CC3)CC4)sc2c1` [Example 505, (E)-2-(4-(2-(5-cyclopropyl-3-(3,5-dichloropyridin-4-yl)isoxazol-4-yl)vinyl)bicyclo[2.2.2]octan-1-yl)benzo[d]thiazole-6-carboxylic acid] registered an EC50 of 88 nM. In the case of `O=C(O)c1ccc2c(c1)CCN(C(=O)C13CCC(OCc4c(-c5c(Cl)cccc5Cl)noc4C4CC4)(CC1)CC3)C2` [Example 140, 2-(4-((5-cyclopropyl-3-(2,6-dichlorophenyl)isoxazol-4-yl)methoxy)bicyclo[2.2.2]octane-1-carbonyl)-1,2,3,4-tetrahydroisoquinoline-6-carboxylic acid] it was 1700 nM.

On to `O=C(O)c1cc(-c2nc(C34CCC(OCc5c(-c6c(Cl)cccc6Cl)noc5C5CC5)(CC3)CC4)no2)ccn1` [Example 22, 4-(3-(4-((5-cyclopropyl-3-(2,6-dichlorophenyl)isoxazol-4-yl)methoxy)bicyclo[2.2.2]octan-1-yl)-1,2,4-oxadiazol-5-yl)picolinic acid], for which a half-maximal effect (EC50) was put at 210 nM. The figure for `O=C(O)c1cn2ccc(C#CC34CCC(OCc5c(-c6c(Cl)cncc6Cl)noc5C5CC5)(CC3)CC4)cc2n1` [Example 394] is 180 nM; for `O=C(O)c1cc(F)cc(-c2noc(C34CCC(OCc5c(-c6c(Cl)cncc6Cl)noc5C5CC5)(CC3)CC4)n2)c1` [Example 458, 3-(5-(4-((5-cyclopropyl-3-(3,5-dichloropyridin-4-yl)isoxazol-4-yl)methoxy)bicyclo[2.2.2]octan-1-yl)-1,2,4-oxadiazol-3-yl)-5-fluorobenzoic acid] it is 85 nM. In the case of `CC(C)Oc1cc(C(=O)O)nc2c(F)cc(OCC34CCC(OCc5c(-c6c(Cl)cncc6Cl)noc5C5CC5)(CC3)CC4)cc12` [Example 304, 6-((4-((5-cyclopropyl-3-(3,5-dichloropyridin-4-yl)isoxazol-4-yl)methoxy)bicyclo[2.2.2]octan-1-yl)methoxy)-8-fluoro-4-isopropoxyquinoline-2-carboxylic acid] it was 11 nM; in that of `O=C(O)c1cc(C2CC2)c2cc(OCC34CCC(OCc5c(-c6c(Cl)cncc6Cl)noc5C5CC5)(CC3)CC4)ccc2n1` [Example 324, 4-cyclopropyl-6-((4-((5-cyclopropyl-3-(3,5-dichloropyridin-4-yl)isoxazol-4-yl)methoxy)bicyclo[2.2.2]octan-1-yl)methoxy)quinoline-2-carboxylic acid], 22 nM. The figure for `CC(C)Oc1ccc(C(=O)O)c2ccc(C34CCC(OCc5c(-c6c(Cl)cncc6Cl)noc5C5CC5)(CC3)CC4)nc12` [Example 391, 2-(4-((5-cyclopropyl-3-(3,5-dichloropyridin-4-yl)isoxazol-4-yl)methoxy)bicyclo[2.2.2]octan-1-yl)-8-isopropoxyquinoline-5-carboxylic acid] is 14 nM; for `O=C(O)c1cc(F)c2nc(C34CCC(OCc5c(-c6ccccc6OC(F)(F)F)noc5C5CC5)(CC3)CC4)sc2c1` [Example 15, 2-(4-((5-cyclopropyl-3-(2-(trifluoromethoxy)phenyl)isoxazol-4-yl)methoxy)bicyclo[2.2.2]octan-1-yl)-4-fluorobenzo[d]thiazole-6-carboxylic acid] it is 210 nM. Consider `O=C(O)c1cccc(CC(O)C23CCC(OCc4c(-c5c(Cl)cccc5Cl)noc4C4CC4)(CC2)CC3)c1` (stereo not drawn) [Example 127, 3-(2-(4-((5-cyclopropyl-3-(2,6-dichlorophenyl)isoxazol-4-yl)methoxy)bicyclo[2.2.2]octan-1-yl)-2-hydroxyethyl)benzoic acid], for which it took 280 nM to reach a half-maximal effect (EC50). The EC50 values of the last two molecules are within 1.5-fold of each other. In the case of `O=C(O)c1ccc(C23CCC(OCc4c(-c5c(Cl)cccc5Cl)noc4C4CC4)(CC2)CC3)nc1` [Example 138, 6-(4-((5-cyclopropyl-3-(2,6-dichlorophenyl)isoxazol-4-yl)methoxy)bicyclo[2.2.2]octan-1-yl)nicotinic acid] it was 440 nM. `O=C(O)c1cc(-c2nc(C34CCC(OCc5c(-c6ccccc6OC(F)(F)F)noc5C5CC5)(CC3)CC4)no2)ccn1` [Example 58] returned an EC50 of 4000 nM. Turning to `CCOc1cc(OCC23CCC(OCc4c(-c5c(Cl)cncc5Cl)noc4C4CC4)(CC2)CC3)cnc1C(N)=O` [Example 295], the EC50 came out at 230 nM. On to `COc1cc(C(=O)O)c(OC)c(-c2noc(C34CCC(OCc5c(-c6c(Cl)cncc6Cl)noc5C5CC5)(CC3)CC4)n2)c1` [Example 246, 3-(5-(4-((5-cyclopropyl-3-(3,5-dichloropyridin-4-yl)isoxazol-4-yl)methoxy)bicyclo[2.2.2]octan-1-yl)-1,2,4-oxadiazol-3-yl)-2,5-dimethoxybenzoic acid], for which the EC50 was determined as 90 nM.

For `NC(=O)c1cnc(OCC23CCC(OCc4c(-c5c(Cl)cncc5Cl)noc4C4CC4)(CC2)CC3)c(C(F)(F)F)c1` [Example 278, 6-((4-((5-cyclopropyl-3-(3,5-dichloropyridin-4-yl)isoxazol-4-yl)methoxy)bicyclo[2.2.2]octan-1-yl)methoxy)-5-(trifluoromethyl)nicotinamide], the EC50 stood at 620 nM. `CC(C)Oc1cc(-c2noc(C34CCC(OCc5c(-c6c(Cl)cncc6Cl)noc5C5CC5)(CC3)CC4)n2)cc(C(=O)O)n1` [Example 258, 4-(5-(4-((5-cyclopropyl-3-(3,5-dichloropyridin-4-yl)isoxazol-4-yl)methoxy)bicyclo[2.2.2]octan-1-yl)-1,2,4-oxadiazol-3-yl)-6-isopropoxypicolinic acid] gave an EC50 of 8 nM.

As for `OCc1noc(C23CCC(OCc4c(-c5c(Cl)cccc5Cl)noc4C4CC4)(CC2)CC3)n1` [Example 73, (5-(4-((5-cyclopropyl-3-(2,6-dichlorophenyl)isoxazol-4-yl)methoxy)bicyclo[2.2.2]octan-1-yl)-1,2,4-oxadiazol-3-yl)methanol], a half-maximal effect (EC50) was put at 600 nM. `O=C(O)c1cccc(C23CCC(COCc4c(-c5ccccc5OC(F)(F)F)noc4C4CC4)(CC2)CO3)c1` [Example 204] had a concentration giving a half-maximal response (EC50) of 440 nM. This EC50 and that of the molecule before are within 1.5-fold of each other. The figure for `Cc1cc(C(=O)O)nc2ccc(OCC34CCC(OCc5c(-c6c(Cl)cncc6Cl)noc5C5CC5)(CC3)CC4)cc12` [Example 325] is 52 nM. The molecule `O=C(O)c1cccc(OCC23CCC(OCc4c(-c5c(Cl)cncc5Cl)noc4C4CC4)(CC2)CC3)n1` [Example 113, 6-((4-((5-cyclopropyl-3-(3,5-dichloropyridin-4-yl)isoxazol-4-yl)methoxy)bicyclo[2.2.2]octan-1-yl)methoxy)picolinic acid] had a concentration for a half-maximal effect (EC50) of 92 nM. `O=C(O)c1cnc(C#CC23CCC(OCc4c(-c5c(Cl)cncc5Cl)noc4C4CC4)(CC2)CC3)cc1C(F)(F)F` [Example 374] gave an EC50 of 130 nM. The figure for `CC(C)Oc1cc(Cl)c2nc(C34CCC(OCc5c(-c6c(Cl)cncc6Cl)noc5C5CC5)(CC3)CC4)ccc2c1C(=O)O` [Example 427] is 5 nM.

`COc1cc(C(=O)O)nc2c(F)cc(OCC34CCC(OCc5c(-c6c(Cl)cncc6Cl)noc5C5CC5)(CC3)CC4)cc12` [Example 303, 6-((4-((5-cyclopropyl-3-(3,5-dichloropyridin-4-yl)isoxazol-4-yl)methoxy)bicyclo[2.2.2]octan-1-yl)methoxy)-8-fluoro-4-methoxyquinoline-2-carboxylic acid] displayed a concentration giving a half-maximal response (EC50) of 24 nM. In the case of `O=C(O)c1ccc2nc(C34CCC(COCc5c(-c6c(Cl)cccc6Cl)noc5C5CC5)(CC3)CC4)sc2c1` [Example 168, 2-(4-(((5-cyclopropyl-3-(2,6-dichlorophenyl)isoxazol-4-yl)methoxy)methyl)bicyclo[2.2.2]octan-1-yl)benzo[d]thiazole-6-carboxylic acid] it was 1200 nM; in that of `O=C(O)c1ccc(F)c(-c2noc(C34CCC(COCc5c(-c6c(Cl)cncc6Cl)noc5C5CC5)(CC3)CC4)n2)c1` [Example 486, 3-(5-(4-(((5-cyclopropyl-3-(3,5-dichloropyridin-4-yl)isoxazol-4-yl)methoxy)methyl)bicyclo[2.2.2]octan-1-yl)-1,2,4-oxadiazol-3-yl)-4-fluorobenzoic acid], 2700 nM. For the molecule `COc1c(C#CC23CCC(OCc4c(-c5c(Cl)cncc5Cl)noc4C4CC4)(CC2)CC3)cccc1C(=O)O` [Example 383], a half-maximal effect (EC50) was put at 820 nM.

The molecule `Cn1cc(C(=O)O)c2ccc(C#CC34CCC(OCc5c(-c6c(Cl)cncc6Cl)noc5C5CC5)(CC3)CC4)nc21` [Example 363] gave a 50% effective concentration (EC50) of 260 nM. As to `COC(=O)c1ccc(-c2noc(C34CCC(OCc5c(-c6ccccc6OC(F)(F)F)noc5C(C)C)(CC3)CC4)n2)cc1` [Example 35], the EC50 was 2400 nM.

(Values after patent US10730863B2, “Bridged bicyclic compounds as farnesoid X receptor modulators” (BRISTOL-MYERS SQUIBB COMPANY, priority 2017, dated 2020).)
